Results taken from ChEMBL document CHEMBL1141295, “Constituents of Ocimum sanctum with antistress activity” (J Nat Prod, 2007).
The source made the active and inactive calls.

Assays:
Format in all cases: functional, organism-based
Parameters in all cases: dose 40 mg/kg
[1] = tested on: Rattus norvegicus; test: Increase in acute stress induced adrenal gland weight in Sprague-Dawley rat at 40 mg/kg, po
[2] = tested on: Rattus norvegicus; test: Decrease in acute stress induced adrenal hypertrophy in Sprague-Dawley rat at 40 mg/kg, po
[3] = tested on: Rattus norvegicus; test: Increase in acute stress induced plasma corticosterone levels in Sprague-Dawley rat at 40 mg/kg, po
[4] = tested on: Rattus norvegicus; test: Increase in acute stress induced plasma creatine levels in Sprague-Dawley rat at 40 mg/kg, po
[5] = tested on: Rattus norvegicus; test: Increase in acute stress induced glucose levels in Sprague-Dawley rat at 40 mg/kg, po

Measured: Activity

CCCCCCCCCCCCCCCCCCCCCC(=O)O[C@H](COC(=O)CCCCCCCCCCCCCCC)CO[C@H]1O[C@H](CN)[C@@H](O)[C@H](O)[C@H]1O
active: all assays above

C=CCc1ccc(O[C@@H]2O[C@H](CO)[C@@H](O)[C@H](O)[C@H]2O)c(O)c1
active: all assays above

CCCCCCCCCCCCCCCCCC(=O)OC[C@H](CO[C@@H]1O[C@H](CO[C@H]2O[C@H](CO)[C@H](O)[C@H](O)[C@H]2O)[C@H](O)[C@H](O)[C@H]1O)OC(=O)CCCCCCCCCCCCC
active: [1] | [3] | [4]
